From ChEMBL document CHEMBL3875216, “Synthesis of antimicrobial glucosamides as bacterial quorum sensing mechanism inhibitors” (Bioorg Med Chem, 2017)

Assays:
Escherichia coli [1] = test: Inhibition of LuxR-dependent quorum sensing activity in Escherichia coli MT102 harboring pJBA132 assessed as inhibition of OHHL-induced GFP expression at 1 mM measured after 8 hrs by fluorescence assay relative to control
Escherichia coli [2] = test: Growth inhibition of Escherichia coli MT102 at 2 mM after 8 hrs relative to control; details: MT102, 8 h, read-out: GI
Escherichia coli [3] = test: Growth inhibition of Escherichia coli MT102 at 1 mM after 24 hrs relative to control; details: MT102, 24 h, read-out: GI
Escherichia coli [4] = test: Inhibition of LuxR-dependent quorum sensing activity in Escherichia coli MT102 harboring pJBA132 assessed as inhibition of OHHL-induced GFP expression at 2 mM measured after 8 hrs by fluorescence assay relative to control
Escherichia coli [5] = test: Inhibition of LuxR-dependent quorum sensing activity in Escherichia coli MT102 harboring pJBA132 assessed as inhibition of OHHL-induced GFP expression at 1 mM measured after 24 hrs by fluorescence assay relative to control
Pseudomonas aeruginosa [6] = test: Inhibition of LasR-dependent quorum sensing activity in Pseudomonas aeruginosa MH602 harboring GFP-fused […] LasB promoter assessed as inhibition of 3-oxo-dodecanoyl HSL-induced GFP expression at 2 mM measured after 8 hrs by fluorescence assay relative to control
Pseudomonas aeruginosa [7] = test: Inhibition of LasR-dependent quorum sensing activity in Pseudomonas aeruginosa MH602 harboring GFP-fused […] LasB promoter assessed as inhibition of 3-oxo-dodecanoyl HSL-induced GFP expression at 1 mM measured after 8 hrs by fluorescence assay relative to control
Pseudomonas aeruginosa [8] = test: Growth inhibition of Pseudomonas aeruginosa MH602 at 1 mM after 24 hrs relative to control; details: MH602, 24 h, read-out: GI
Pseudomonas aeruginosa [9] = test: Growth inhibition of Pseudomonas aeruginosa MH602 at 2 mM after 24 hrs relative to control; details: MH602, 24 h, read-out: GI
Pseudomonas aeruginosa [10] = test: Growth inhibition of Pseudomonas aeruginosa MH602 at 500 uM after 8 hrs relative to control; details: MH602, 8 h, read-out: GI
[11] = tested on: Pseudomonas aeruginosa PA14; test: Inhibition of quorum sensing-regulated biofilm formation in Pseudomonas aeruginosa PA14 at 2 mM after overnight incubation by crystal violet staining based assay relative to control
[12] = tested on: Pseudomonas aeruginosa PA14; test: Inhibition of quorum sensing-regulated pyocyanin production in Pseudomonas aeruginosa PA14 at 2 mM after 24 hrs relative to control
Pseudomonas aeruginosa [13] = test: Growth inhibition of Pseudomonas aeruginosa MH602 at 2 mM after 8 hrs relative to control; details: MH602, 8 h, read-out: GI
Escherichia coli [14] = test: Growth inhibition of Escherichia coli MT102 at 2 mM after 24 hrs relative to control; details: MT102, 24 h, read-out: GI
Escherichia coli [15] = test: Inhibition of LuxR-dependent quorum sensing activity in Escherichia coli MT102 harboring pJBA132 assessed as inhibition of OHHL-induced GFP expression at 2 mM measured after 24 hrs by fluorescence assay relative to control
Pseudomonas aeruginosa [16] = test: Inhibition of LasR-dependent quorum sensing activity in Pseudomonas aeruginosa MH602 harboring GFP-fused […] LasB promoter assessed as inhibition of 3-oxo-dodecanoyl HSL-induced GFP expression at 500 uM measured after 8 hrs by fluorescence assay relative to control
Escherichia coli [17] = test: Growth inhibition of Escherichia coli MT102 at 1 mM after 8 hrs relative to control; details: MT102, 8 h, read-out: GI
Escherichia coli [18] = test: Growth inhibition of Escherichia coli MT102 at 500 uM after 8 hrs relative to control; details: MT102, 8 h, read-out: GI
Escherichia coli [19] = test: Growth inhibition of Escherichia coli MT102 at 500 uM after 24 hrs relative to control; details: MT102, 24 h, read-out: GI
Pseudomonas aeruginosa [20] = test: Growth inhibition of Pseudomonas aeruginosa PA14 at 2 mM after 24 hrs relative to control; details: 2000 µM
Pseudomonas aeruginosa [21] = test: Growth inhibition of Pseudomonas aeruginosa MH602 at 500 uM after 24 hrs relative to control; details: MH602, 24 h, read-out: GI
Pseudomonas aeruginosa [22] = test: Growth inhibition of Pseudomonas aeruginosa MH602 at 1 mM after 8 hrs relative to control; details: MH602, 8 h, read-out: GI
Pseudomonas aeruginosa [23] = test: Inhibition of LasR-dependent quorum sensing activity in Pseudomonas aeruginosa MH602 harboring GFP-fused […] LasB promoter assessed as inhibition of 3-oxo-dodecanoyl HSL-induced GFP expression at 2 mM measured after 24 hrs by fluorescence assay relative to control
Escherichia coli [24] = test: Inhibition of LuxR-dependent quorum sensing activity in Escherichia coli MT102 harboring pJBA132 assessed as inhibition of OHHL-induced GFP expression at 500 uM measured after 8 hrs by fluorescence assay relative to control

Compound	inhibition (Escherichia coli [1]) [%]	inhibition at 2000 µM (Escherichia coli [2]) [%]	inhibition at 1000 µM (Escherichia coli [3]) [%]	inhibition (Escherichia coli [4]) [%]	inhibition (Escherichia coli [5]) [%]	inhibition (Pseudomonas aeruginosa [6]) [%]	inhibition (Pseudomonas aeruginosa [7]) [%]	inhibition at 1000 µM (Pseudomonas aeruginosa [8]) [%]	inhibition at 2000 µM (Pseudomonas aeruginosa [9]) [%]	inhibition at 500 µM (Pseudomonas aeruginosa [10]) [%]	inhibition at 2000 µM (Pseudomonas aeruginosa [13]) [%]	inhibition at 2000 µM (Escherichia coli [14]) [%]	inhibition (Escherichia coli [15]) [%]	inhibition (Pseudomonas aeruginosa [16]) [%]	inhibition at 1000 µM (Escherichia coli [17]) [%]	inhibition at 500 µM (Escherichia coli [18]) [%]	inhibition at 500 µM (Escherichia coli [19]) [%]	growth inhibition (GI) (Pseudomonas aeruginosa [20])	inhibition at 500 µM (Pseudomonas aeruginosa [21]) [%]	inhibition at 1000 µM (Pseudomonas aeruginosa [22]) [%]	further results
CCCC(=O)CC(=O)N[C@H]1[C@H](OC(C)=O)O[C@H](COC(C)=O)[C@@H](OC(C)=O)[C@@H]1OC(C)=O	85.4	50.3	49.2	88.1	20.7	64.5	59.6	25.9	4.6	5.7	74.9	65.1	40.9	5.3	44.1	22.2	12.7	Non-Toxic	6.3	66.8	inhibition [11]: 38.1%; inhibition [12]: 3.5%
CCCCCC(=O)N[C@@H]1[C@@H](O)[C@H](O)[C@@H](CO)O[C@H]1O	10.7	24.6	8.4	–	15.8	10	13.1	19.2	3.1	7.1	19	0	42.7	12.9	11.7	0	0	Non-Toxic	0	10.5	inhibition [11]: 9%
CCCCCCCC(=O)N[C@H]1[C@H](OC(C)=O)O[C@H](COC(C)=O)[C@@H](OC(C)=O)[C@@H]1OC(C)=O	2.3	14.9	9.6	36	–	–	8.5	0	2.8	2.7	33.1	21.4	14	14.4	0	23.7	6.2	Non-Toxic	0	2.5	inhibition [11]: 21.1%; inhibition (Pseudomonas aeruginosa [23]): 26.1%
CC(=O)OC[C@H]1O[C@@H](OC(C)=O)[C@H](NC(=O)CC(=O)CCCc2ccccc2)[C@@H](OC(C)=O)[C@@H]1OC(C)=O	26	21.8	4.9	12.8	43.4	24.4	–	19.6	0	0	24.8	5.1	34.2	6.5	2.6	3.3	0	Non-Toxic	0	11.7	–
CCCCCCCCCC(=O)N[C@@H]1[C@@H](O)[C@H](O)[C@@H](CO)O[C@H]1O	16.3	38.2	20	–	8.5	11.5	15.6	30.2	0	7.8	17.6	12.3	23.3	15.7	45	0	15.3	Non-Toxic	16.4	20.4	inhibition [12]: 13.3%
CCCCCCCCCCCC(=O)N[C@@H]1[C@@H](O)[C@H](O)[C@@H](CO)O[C@H]1O	4.6	28.6	14.3	–	–	–	–	37.2	28.7	25.5	32	11.7	–	12.6	46.2	23.2	14.3	Non-Toxic	19.4	30.9	inhibition [11]: 2.3%; inhibition [12]: 20.7%
CC(=O)OC[C@H]1O[C@@H](OC(C)=O)[C@H](NC(=O)CCc2c[nH]c3ccccc23)[C@@H](OC(C)=O)[C@@H]1OC(C)=O	2.3	0	0	65.5	–	53.8	32.6	3.5	0	2.3	0	0	28.5	9.3	0	0	2.6	Non-Toxic	3.5	0	inhibition (Pseudomonas aeruginosa [23]): 7.4%; inhibition (Escherichia coli [24]): 13.5%
CCCCCCCC(=O)N[C@@H]1[C@@H](O)[C@H](O)[C@@H](CO)O[C@H]1O	–	30.7	4.4	16.7	48.2	23.2	12.2	0	65.4	3.4	21.3	0	45.7	17.5	10.6	0	0	Non-Toxic	0	0	inhibition [11]: 14%; inhibition [12]: 11.7%; inhibition (Pseudomonas aeruginosa [23]): 21.3%
CC(=O)OC[C@H]1O[C@@H](OC(C)=O)[C@H](NC(=O)CCCc2ccccc2)[C@@H](OC(C)=O)[C@@H]1OC(C)=O	18.1	93.2	19.7	–	21.1	5.2	4.9	25.9	3.3	7.3	37.2	26.7	43.8	7.3	64.7	15.1	5.2	Non-Toxic	0	30.9	–
CCCCCCCCCCCC(=O)N[C@H]1[C@H](OC(C)=O)O[C@H](COC(C)=O)[C@@H](OC(C)=O)[C@@H]1OC(C)=O	–	21.8	13.4	1.8	31.5	–	–	0	0	0	1.2	15	59.7	12.8	0	0	12.2	Non-Toxic	0	0	inhibition [11]: 3.5%; inhibition [12]: 19.7%; inhibition (Pseudomonas aeruginosa [23]): 35.3%
